Measurements reported in US10851069B2, “Compositions of crystallized hydrophobic compounds and methods of making and using same” (Massachusetts Institute of Technology, priority 2016, dated 2020).

Assays:
[1] = Drug extraction (HPLC) of retrieved capsules, remaining loaded drug; assay type: in vivo, C57BL/6 mice; conditions: crystalline, co-encapsulated with islets, after 460 days compared to 6 months (180 days)
Method: Calibration curves were obtained on an Agilent LC 1100 Series (Agilent Technologies, CA, USA) equipped with binary pump ([…] Å), auto-sampler (G1313 Å), degasser and photodiode detector (DAD, […] Å). Chemstation was used for system control, data processing and data acquisition for LC. Chromatographic separation was achieved by an analytical Waters Atlantis T3 C18 column (5 μm, 4.6×250 mm). The temperature of column and auto-sampler were kept at 20° C. Stock solution of GW2580 was prepared in dimethyl sulfoxide (DMSO) at a target concentration of 10 mg/ml and appropriate dilutions were made in DMSO to prepare standards (0.25-2500 μg/ml) for calibration curve of GW2580. 10 μl of standard solution was injected and the analytes were eluted by gradient mode using (A) acetonitrile and (B) 0.1% formic acid in water at a constant flow rate of 1 ml/min. The gradient conditions of mobile phase were as follows: 0 min 10% A, 10 min 95% A, 14 min 95% A, 16 min 10% A, 20 min 10% A. Stock solution of curcumin was prepared in dimethyl sulfoxide (DMSO) at a target concentration of 10 mg/ml and appropriate dilutions were made in DMSO to prepare standards (0.05-500 μg/ml) for calibration curve of curcumin. 10 μl of standard solution was injected and the analytes were eluted by gradient mode using (A) acetonitrile and (B) 0.1% formic acid in water at a constant flow rate of 1 ml/min. […]

[2] = system: C57BL/6 mice; assay: Naked GW2580 crystals co-injected SC with polystyrene or glass spheres, 2 weeks; assay type: in vivo
Method: Naked crystals of GW2580 or saline-only (no drug control) were delivered intraperitoneally along with 500 μm alginate spheres for 2 weeks to C57BL/6 mice. […] Brightfield and fluorescence imaging was used to emphasize the respective presence or lack of fibrotic overgrowth on retrieved alginate spheres from either saline (control) or crystalline GW2580 treatment groups (FIG. 17C). […] GW2580 crystal testing (at doses of 0.5 and 5 mg/SC site) was also extended into the SC implant space with other immunogenic materials, ceramic glass (GL) and polymer polystyrene (PS). […] Retrieved materials where fixed overnight using 4% paraformaldehyde at 4° C. After fixation, alginate sphere or retrieved tissue samples were washed using 70% alcohol. The materials where then mixed with 4 degrees calcium-cooled Histogel (VWR, CA #60872-486). After the molds hardened, the blocks were processed for paraffin embedding, sectioning and staining according to standard histological methods. Single-cell suspensions of freshly excised tissues were prepared using a gentle MACS Dissociator (Miltenyi Biotec, Auburn, Calif.) according to the manufacturer's protocol. Single-cell suspensions were prepared in a passive PEB dissociation buffer (1×PBS, pH 7.2, 0.5% BSA, and 2 mM EDTA) and suspensions were passed through 70 μm filters (Cat. #22363548, Fisher Scientific, Pittsburgh, Pa.). This process removed the majority of cells adhered to the surface (>90%). All tissue and material sample-derived, single-cell populations were then subjected to red blood cell lysis with 5 ml of 1×RBC lysis buffer (Cat. #00-4333, eBioscience, San Diego, Calif., USA) for 5 min at 4° C. The reaction was terminated by the addition of 20 ml of sterile 1×PBS. The cells remaining were centrifuged at 300-400 g at 4° C. and resuspended in a minimal volume (˜50 μl) of eBioscience Staining Buffer (cat. #00-4222) for antibody incubation. All samples were then co-stained in the dark for 25 min at 4° C. with two of the fluorescently tagged monoclonal antibodies specific for the cell markers CD68 (1 μl (0.5 μg) per sample; CD68-Alexa647, Clone FA-11, Cat. #11-5931, BioLegend), Ly-6G (Gr-1) (1 μl (0.5 μg) per sample; Ly-6G-Alexa-647, Clone RB6-8C5, Cat. #108418, BioLegend), CD11b (1 μl (0.2 μg) per sample; or CD11b-Alexa-488, Clone M1/70, Cat. #101217, BioLegend). For alpha smooth muscle actin (fibrosis) analysis, additional cell aliquots were also fixed in 1% paraformaldehyde and permeabilized with 0.1% triton X-100 before being stained with Cy3-conjugated anti-mouse αSM actin antibody (1:100) (Sigma Aldrich, St. Louis, Mo.). Two ml of eBioscience Flow Cytometry Staining Buffer (cat. #00-4222, eBioscience) was then added, and the samples were centrifuged at 400-500 g for 5 min at 4° C. […]

Q: With `COc1ccc(COc2ccc(Cc3cnc(N)nc3N)cc2OC)cc1` [GW2580, 5-[[3-Methoxy-4-[(4-methoxyphenyl)methoxy]phenyl]methyl]-2,4-pyrimidinediamine] as the compound, how does the “drug remaining in retrieved capsules” value [1] read?
A: The value was “significantly larger amount”.

Q: What about the “responding macrophages (FACS)” value ([2]; SC-implanted PS and GL 0.5 mm spheres, 2 weeks) of the same compound?
A: Its value is “significant reductions in responding macrophages”.

Q: What about the “drug extracted from nearby tissue” value ([2]; all implant groups, 2 weeks) of the same compound?
A: Its value is “large quantities of remaining drug”.

Q: And the anti-fibrotic effect ([2]; ceramic glass (GL) spheres, SC, no histology)?
A: The anti-fibrotic effect was “anti-fibrotic effects were also observed”.

Q: What about the “anti-fibrotic effect (H&E and Masson's Trichrome)” value ([2]; polystyrene (PS) spheres, SC, 0.5 and 5 mg/SC site, 2 weeks) of the same compound?
A: The value was “significant anti-fibrotic effects”.
